According to PMC3368905, “Inhibition of Ion Channels and Heart Beat in Drosophila by Selective COX-2 Inhibitor SC-791” (PLoS ONE, 2012):

Biological target: T1, Shab channel (IKS, delayed rectifier, Drosophila Kv2) (Drosophila melanogaster, UniProt P17970)
T1 construct: native channel in larval body-wall muscles (fiber 12)
T1 sequence (P17970 1-1015): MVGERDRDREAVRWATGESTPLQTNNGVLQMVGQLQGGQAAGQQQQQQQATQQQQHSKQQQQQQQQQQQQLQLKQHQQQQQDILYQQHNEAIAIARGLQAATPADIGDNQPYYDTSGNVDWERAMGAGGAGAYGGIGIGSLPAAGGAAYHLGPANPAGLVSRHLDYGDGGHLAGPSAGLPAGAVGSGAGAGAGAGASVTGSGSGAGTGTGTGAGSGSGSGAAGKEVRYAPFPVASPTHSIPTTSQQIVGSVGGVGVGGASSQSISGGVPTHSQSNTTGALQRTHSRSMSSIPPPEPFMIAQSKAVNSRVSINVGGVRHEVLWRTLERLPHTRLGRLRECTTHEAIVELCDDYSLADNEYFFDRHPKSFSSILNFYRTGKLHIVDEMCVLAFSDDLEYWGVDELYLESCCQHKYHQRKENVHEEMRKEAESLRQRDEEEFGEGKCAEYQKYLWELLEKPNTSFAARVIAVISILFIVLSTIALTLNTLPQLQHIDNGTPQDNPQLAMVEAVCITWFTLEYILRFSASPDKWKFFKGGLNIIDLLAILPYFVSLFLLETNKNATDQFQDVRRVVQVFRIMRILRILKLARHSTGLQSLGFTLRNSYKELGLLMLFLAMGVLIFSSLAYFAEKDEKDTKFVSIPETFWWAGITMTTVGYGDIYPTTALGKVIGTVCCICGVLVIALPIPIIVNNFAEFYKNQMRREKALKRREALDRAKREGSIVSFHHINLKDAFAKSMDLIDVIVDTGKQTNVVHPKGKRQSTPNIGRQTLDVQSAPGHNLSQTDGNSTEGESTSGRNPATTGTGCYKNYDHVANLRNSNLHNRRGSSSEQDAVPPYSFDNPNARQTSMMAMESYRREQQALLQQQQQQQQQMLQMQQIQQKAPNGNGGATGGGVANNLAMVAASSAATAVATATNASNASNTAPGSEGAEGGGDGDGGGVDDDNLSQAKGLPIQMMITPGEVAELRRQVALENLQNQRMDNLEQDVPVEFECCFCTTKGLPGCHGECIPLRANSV
Experiment: two-microelectrode voltage clamp of native IKS in larval muscle
Type: cell-based

SMILES: NS(=O)(=O)c1ccc(-c2c(-c3ccccc3)noc2C(F)F)cc1 [SC-791]
- IC50: 21 µM
